The source of these data is patent publication US8193372B2, “Phosphothiophene and phosphothiazole HCV polymerase inhibitors” (Idenix Pharmaceuticals, Inc., priority 2009, dated 2012).

The nature of data set [1]: in vitro. The following applies: human.
For data set [2], the system named is HCV Con1 subgenomic replicon of genotype 1b (GS4.1 cells). The data set is described as follows: microbe, parasite or virus in culture. The settings on record: Hepatitis C virus; for EC50: 72 h. Format: cell-based, HCV genotype 1b.

Regarding `COP(=O)(c1ccc(C)cc1C)N(C)c1cc(-c2ccc(-c3cc4ncccn4n3)cc2)sc1C(=O)O` (stereo not drawn) [Compound 138], in data set [1], the CC50 is > 8.3 µM. For the same molecule, in data set [2], the IC50 was < 0.1 µM and the EC50 was < 0.1 µM.
Consider `CCOP(=O)(Nc1cc(-c2ccc(Cl)cc2)sc1C(=O)O)c1ccc(Cl)cc1Cl` (stereo not drawn) [Compound 163], for which the CC50 in data set [1] is > 8.3 µM. In data set [2], this molecule returned an IC50 of 0.1 to 8.3 µM and an EC50 of 0.1 to 8.3 µM.
For the molecule `CCCOP(=O)(Nc1cc(-c2ccc(Cl)cc2)sc1C(=O)O)c1ccc(C)cc1C` (stereo not drawn) [Compound 87], the CC50 in data set [1] is > 8.3 µM. In data set [2], this molecule registered an IC50 of 0.1 to 8.3 µM and an EC50 of 0.1 to 8.3 µM.
For the molecule `COP(=O)(Nc1cc(-c2ccc(-c3cc4nc(C)cc(N)n4n3)cc2)sc1C(=O)O)c1ccc(C)cc1C` (stereo not drawn) [Compound 100], the CC50 in data set [1] was > 8.3 µM. Besides, in data set [2], the IC50 is < 0.1 µM and the EC50 is < 0.1 µM.
On to `CCOP(=O)(Nc1cc(-c2ccc(C#N)cc2)sc1C(=O)O)c1ccc(Cl)cc1Cl` (stereo not drawn) [Compound 29, 2-Thiophenecarboxylic acid, 3-N-[(2,4-dichlorophenyl)-phosphonamidateethyl ester]-5-(4-cyanophenyl)], for which the CC50 in data set [1] was > 8.3 µM. Moreover, in data set [2], the EC50 was > 8.3 µM.
For the molecule `COP(=O)(Nc1cc(-c2ccccc2)sc1C(=O)O)c1ccc(Cl)cc1Cl` (stereo not drawn) [Compound 159], the CC50 in data set [1] is > 8.3 µM. Besides, in data set [2], the IC50 is 0.1 to 8.3 µM and the EC50 was > 8.3 µM.
In the case of `CCOP(=O)(c1ccc(C)cc1C)N(c1cc(-c2ccc(F)cc2)sc1C(=O)O)C(C)C` (stereo not drawn) [Compound 33, 2-Thiophenecarboxylic acid, 3-N-isopropyl-N-[(2,4-dimethyl-phenyl)-phosphonamidateethyl ester]-5-(4-fluorophenyl)], in data set [1], the CC50 is > 8.3 µM. For the same molecule, in data set [2], the IC50 fell in the range of 0.1 to 8.3 µM and the EC50 fell in the range of 0.1 to 8.3 µM.
`COP(=O)(Nc1cc(-c2ccc(C#Cc3ccccn3)cc2)sc1C(=O)O)c1ccc(C)cc1C` (stereo not drawn) [Compound 143]: the CC50 in data set [1] is > 8.3 µM. Besides, in data set [2], the 50% inhibitory concentration (IC50) is < 0.1 µM and the EC50 is < 0.1 µM.
Turning to `COP(=O)(Nc1cc(-c2ccc(-c3cc4ncccn4n3)cc2)sc1C(=O)OCc1ccccc1)c1ccc(C)cc1C` (stereo not drawn) [Compound 112], the CC50 in data set [1] was > 8.3 µM. In data set [2], the IC50 lay within 0.1 to 8.3 µM and the EC50 was in the range of 0.1 to 8.3 µM.
Turning to `COP(=O)(Nc1cc(-c2ccc(C#CC3CC3)cc2)sc1C(=O)O)c1ccc(C)cc1C` (stereo not drawn) [Compound 118], in data set [1], the CC50 was > 8.3 µM. Also, in data set [2], the IC50 is < 0.1 µM and the EC50 lay in the range of 0.1 to 8.3 µM.
For the molecule `CCOP(=O)(Nc1cc(-c2ccc(Cl)cc2)sc1C(=O)O)C1CC=C(C)CC1` (stereo not drawn) [Compound 117], the CC50 in data set [1] is > 8.3 µM. Besides, in data set [2], the IC50 was 0.1 to 8.3 µM and the EC50 was > 8.3 µM.
Consider `COP(=O)(Cc1cc(-c2ccc(F)cc2)sc1C(=O)O)c1ccc(C)cc1C` (stereo not drawn) [Compound 176], for which the CC50 in data set [1] was > 8.3 µM. In data set [2], the IC50 was 0.1 to 8.3 µM and the EC50 is > 8.3 µM.
In the case of `Cc1ccc(P(=O)(Nc2cc(-c3ccc(Cl)cc3)sc2C(=O)O)OC(C)C)c(C)c1` (stereo not drawn) [Compound 89], the CC50 in data set [1] is > 8.3 µM. In data set [2], this molecule had an IC50 of 0.1 to 8.3 µM and an EC50 of 0.1 to 8.3 µM.
Consider `COP(=O)(Nc1cc(-c2ccc(-c3ccccc3F)cc2)sc1C(=O)O)c1ccc(C)cc1C` (stereo not drawn) [Compound 124], for which the CC50 in data set [1] was > 8.3 µM. For the same molecule, in data set [2], the IC50 is 0.1 to 8.3 µM and the EC50 was 0.1 to 8.3 µM.
Turning to `COP(=O)(Nc1cc(-c2ccc(C#CCC(C)C)cc2)sc1C(=O)O)c1ccc(C)cc1C` (stereo not drawn) [Compound 104], the CC50 in data set [1] was > 8.3 µM. Besides, in data set [2], the IC50 fell in the range of 0.1 to 8.3 µM and the EC50 is > 8.3 µM.
On to `COP(=O)(Nc1cc(-c2ccc(C#Cc3cncn3C)cc2)sc1C(=O)O)c1ccc(C)cc1C` (stereo not drawn) [Compound 101], for which, in data set [1], the CC50 is > 8.3 µM. In addition, in data set [2], the IC50 was < 0.1 µM and the EC50 was in the range of 0.1 to 8.3 µM.
The matching figures for `COP(=O)(Nc1cc(-c2cccc(F)c2)sc1C(=O)O)c1ccc(C)cc1C` (stereo not drawn) [Compound 88]: > 8.3 µM, 0.1 to 8.3 µM and 0.1 to 8.3 µM.
The matching figures for `CCOP(=O)(Nc1cc(-c2ccc(F)cc2)sc1C(=O)O)c1ccc(C)cc1C` (stereo not drawn) [Compound 22, 2-Thiophenecarboxylic acid, 3-N-[(2,4-dimethyl-phenyl)-phosphonamidateethyl ester]-5-(4-fluorophenyl)]: > 8.3 µM, 0.1 to 8.3 µM and 0.1 to 8.3 µM.
The matching figures for `COP(=O)(Nc1cc(-c2cc3ccccc3o2)sc1C(=O)O)c1ccc(C)cc1C` (stereo not drawn) [Compound 96]: > 8.3 µM, < 0.1 µM and 0.1 to 8.3 µM.
Regarding `COP(=O)(Nc1cc(-c2ccc(Br)cc2)sc1C(=O)O)c1ccc(C)cc1C` (stereo not drawn) [Compound 141], in data set [1], the CC50 is > 8.3 µM. In data set [2], the IC50 was < 0.1 µM and the EC50 is 0.1 to 8.3 µM.
On to `CCOP(=O)(Nc1cc(-c2ccc(OCc3ccccc3)cc2)sc1C(=O)O)c1ccc(Cl)cc1Cl` (stereo not drawn) [Compound 158], for which, in data set [1], the CC50 was > 8.3 µM. In data set [2], this molecule yielded an IC50 of 0.1 to 8.3 µM and an EC50 of 0.1 to 8.3 µM.
On to `COP(=O)(Nc1cc(-c2ccc(-c3cc4ncccc4o3)cc2)sc1C(=O)O)C1CC=C(C)CC1` (stereo not drawn) [Compound 83], for which the CC50 in data set [1] is > 8.3 µM. Besides, in data set [2], the IC50 was < 0.1 µM and the EC50 fell in the range of 0.1 to 8.3 µM.
The matching figures for `COP(=O)(c1ccc(C)cc1C)N(C)c1cc(-c2ccc(-c3cc4ncccc4o3)cc2)sc1C(=O)O` (stereo not drawn) [Compound 145]: > 8.3 µM, < 0.1 µM and < 0.1 µM.
The matching figures for `CCOP(=O)(Nc1cc(-c2ccc(F)cc2)sc1C(=O)OC)c1ccc(C)cc1C` (stereo not drawn) [Compound 173]: > 8.3 µM, > 8.3 µM and > 8.3 µM.
Regarding `COP(=O)(Nc1cc(-c2ccc(-c3ccc(C(F)(F)F)cc3)cc2)sc1C(=O)O)c1ccc(C)cc1C` (stereo not drawn) [Compound 129], the CC50 in data set [1] was > 8.3 µM. For the same molecule, in data set [2], the IC50 was < 0.1 µM and the EC50 fell in the range of 0.1 to 8.3 µM.
The matching figures for `C#CCOP(=O)(Nc1cc(-c2ccc(Cl)cc2)sc1C(=O)O)c1ccc(C)cc1C` (stereo not drawn) [Compound 106]: > 8.3 µM, 0.1 to 8.3 µM and 0.1 to 8.3 µM.
The matching figures for `COP(=O)(Nc1cc(-c2ccc(-c3cccc4ncccc34)cc2)sc1C(=O)O)c1ccc(C)cc1C` (stereo not drawn) [Compound 121]: > 8.3 µM, < 0.1 µM and 0.1 to 8.3 µM.
The matching figures for `COC(=O)c1sc(-c2ccc(F)cc2)cc1NP(=O)(OC)c1ccc(C)cc1C` (stereo not drawn) [Compound 172]: > 8.3 µM, > 8.3 µM and > 8.3 µM.
With `CCOP(=O)(Nc1cc(-c2ccc(Cl)cc2)sc1C(=O)O)C1CCC(C)CC1` (stereo not drawn) [Compound 110], in data set [1], the CC50 is > 8.3 µM. Further, in data set [2], the IC50 lay in the range of 0.1 to 8.3 µM and the EC50 is > 8.3 µM.
On to `CCOP(=O)(Nc1cc(-c2ccccc2)sc1C(=O)O)c1ccc(Cl)cc1Cl` (stereo not drawn) [Compound 28, 2-Thiophenecarboxylic acid, 3-N-[(2,4-dichlorophenyl)-phosphonamidateethyl ester]-5-phenyl], for which the CC50 in data set [1] was > 8.3 µM. In data set [2], the IC50 is 0.1 to 8.3 µM and the EC50 was > 8.3 µM.
On to `COP(=O)(Nc1cc(-c2ccc(NC(=O)c3cscn3)cc2)sc1C(=O)O)c1ccc(C)cc1C` (stereo not drawn) [Compound 115], for which the CC50 in data set [1] is > 8.3 µM. In addition, in data set [2], the IC50 is < 0.1 µM and the EC50 is < 0.1 µM.
With `COP(=O)(Nc1cc(-c2ccc(-c3ccc(OCc4ccccc4)nc3)cc2)sc1C(=O)O)c1ccc(C)cc1C` (stereo not drawn) [Compound 122], in data set [1], the CC50 is > 8.3 µM. In data set [2], the IC50 lay in the range of 0.1 to 8.3 µM and the EC50 is > 8.3 µM.
`COP(=O)(Nc1cc(-c2ccc(C#Cc3ccccc3)cc2)sc1C(=O)O)c1ccc(C)cc1C` (stereo not drawn) [Compound 146]: in data set [1], the CC50 was > 8.3 µM. In data set [2], the IC50 was < 0.1 µM and the EC50 was < 0.1 µM.
Take `COP(=O)(Nc1cc(-c2ccc(I)cc2)sc1C(=O)O)c1ccc(C)cc1C` (stereo not drawn) [Compound 132]: the CC50 in data set [1] was > 8.3 µM. The same molecule registered an IC50 in data set [2] of 0.1 to 8.3 µM.
`COP(=O)(Nc1cc(-c2ccc(Cl)cc2F)sc1C(=O)O)c1ccc(C)cc1C` (stereo not drawn) [Compound 79]: the CC50 in data set [1] is > 8.3 µM. In data set [2], the IC50 is < 0.1 µM and the EC50 was in the range of 0.1 to 8.3 µM.
The matching figures for `COP(=O)(Nc1cc(-c2ccc(C#Cc3ccsc3)cc2)sc1C(=O)O)c1ccc(C)cc1C` (stereo not drawn) [Compound 103]: > 8.3 µM, < 0.1 µM and < 0.1 µM.
Regarding `CCOP(=O)(Nc1cc(-c2ccc(Cl)cc2)sc1C(=O)O)c1ccc(Cl)cc1C` (stereo not drawn) [Compound 136], the CC50 in data set [1] is > 8.3 µM. In addition, in data set [2], the IC50 is < 0.1 µM and the EC50 is 0.1 to 8.3 µM.
The matching figures for `COP(=O)(Nc1cc(-c2ccc(N)cc2)sc1C(=O)O)c1ccc(C)cc1C` (stereo not drawn) [Compound 126]: > 8.3 µM, 0.1 to 8.3 µM and > 8.3 µM.
The matching figures for `COP(=O)(Nc1cc(-c2ccccc2)sc1C(=O)O)c1ccc(C)cc1C` (stereo not drawn) [Compound 27, 2-Thiophenecarboxylic acid, 3-N-[(2,4-dimethyl-phenyl)-phosphonamidatemethyl ester]-5-phenyl]: > 8.3 µM, < 0.1 µM and 0.1 to 8.3 µM.
The matching figures for `COP(=O)(Cc1cc(-c2ccccc2)sc1C(=O)O)c1ccc(C)cc1C` (stereo not drawn) [Compound 177]: > 8.3 µM, 0.1 to 8.3 µM and > 8.3 µM.
Consider `CCOP(=O)(Nc1cc(-c2ccc(Cl)c(Cl)c2)sc1C(=O)O)c1ccc(Cl)cc1Cl` (stereo not drawn) [Compound 161], for which, in data set [1], the CC50 was > 8.3 µM. Moreover, in data set [2], the IC50 was 0.1 to 8.3 µM and the EC50 was > 8.3 µM.
As to `CCOP(=O)(Nc1cc(-c2ccc(F)cc2)sc1C(=O)OC)c1ccc(Cl)cc1Cl` (stereo not drawn) [Compound 170], in data set [1], the CC50 is > 8.3 µM. For the same molecule, the EC50 in data set [2] is > 8.3 µM.
In the case of `COP(=O)(Nc1cc(-c2ccc(C#CC3CCCC3)cc2)sc1C(=O)O)c1ccc(C)cc1C` (stereo not drawn) [Compound 102], in data set [1], the CC50 is > 8.3 µM. Further, in data set [2], the concentration for half-maximal inhibition (IC50) lay within 0.1 to 8.3 µM and the EC50 was > 8.3 µM.
